Data: ChEMBL document CHEMBL3808390, “Quinazolinones-Phenylquinoxaline hybrids with unsaturation/saturation linkers as novel anti-proliferative agents” (2016)

Columns and labels:
Type in all cases: functional
MDA-MB-231 = test: Antiproliferative activity against human MDA-MB-231 cells assessed as growth inhibition after 48 hrs by SRB assay; conditions: MDA-MB-231, 48 h
[1] = Antiproliferative activity against human MiaPaCa cells assessed as growth inhibition after 48 hrs by SRB assay; conditions: MIA PaCa-2, 48 h
[2] = Antiproliferative activity against human IMR32 cells assessed as growth inhibition after 48 hrs by SRB assay; conditions: IMR-32, 48 h
HeLa = test: Antiproliferative activity against human HeLa cells assessed as growth inhibition after 48 hrs by SRB assay

| SMILES | GI50 (MDA-MB-231; read-out: GI50) [nM] | GI50 (HeLa; read-out: GI50) [nM] | GI50 (HeLa; read-out: pGI50 (converted)) [nM] | GI50 (MDA-MB-231; read-out: pGI50 (converted)) [nM] | GI50 ([1]; read-out: GI50) [nM] | GI50 ([1]; read-out: pGI50 (converted)) [nM] | GI50 ([2]; read-out: GI50) [nM] | GI50 ([2]; read-out: pGI50 (converted)) [nM] |
| --- | --- | --- | --- | --- | --- | --- | --- | --- |
| COc1cc(OC)c(-c2nc3ccccc3c(=O)n2C/C=C/c2ccc(-c3cnc4ccccc4n3)cc2)c(OC)c1 | < 10 | 2500 | 2500 |  | 2200 | 2200 | 770 | 771 |
| COc1ccc(-c2nc3ccccc3c(=O)n2C/C=C/c2ccc(-c3cnc4ccccc4n3)cc2)c(F)c1 | < 10 | 900 | 902 |  | 28600 | 28600 | 1200 | 1200 |
| COc1ccc(-c2nc3ccccc3c(=O)n2C/C=C/c2ccc(-c3cnc4ccccc4n3)cc2)c(OC)c1 | < 10 | 31600 | 31600 |  | 13600 | 13600 | 6300 | 6310 |
| O=c1c2ccccc2nc(-c2ccc(C(F)(F)F)cc2)n1C/C=C/c1ccc(-c2cnc3ccccc3n2)cc1 | 1800 | 17700 | 17700 | 1800 | 10000 | 10000 | 5300 | 5310 |
| O=c1c2ccccc2nc(-c2ccc([N+](=O)[O-])cc2)n1C/C=C/c1ccc(-c2cnc3ccccc3n2)cc1 | 140 | 900 | 902 | 140 | 6100 | 6110 | < 10 |  |
| COc1ccc(OC)c(-c2nc3ccccc3c(=O)n2C/C=C/c2ccc(-c3cnc4ccccc4n3)cc2)c1 | 1360 | 38 | 38 | 1360 | 1800 | 1800 | 280 | 282 |
| COc1cccc2c1C(=O)c1c(O)c3c(c(O)c1C2=O)C[C@@](O)(C(=O)CO)C[C@@H]3O[C@H]1C[C@H](N)[C@H](O)[C@H](C)O1 [DOXORUBICIN] | 85 | 73 | 73.1 | 85.1 | 97 | 97 | 23 | 23 |
| CC(=O)O[C@H]1C(=O)[C@@]2(C)[C@H]([C@H](OC(=O)c3ccccc3)[C@]3(O)C[C@H](OC(=O)[C@H](O)[C@@H](NC(=O)c4ccccc4)c4ccccc4)C(C)=C1C3(C)C)[C@]1(OC(C)=O)CO[C@@H]1C[C@@H]2O [PACLITAXEL] | 91 | 25 | 25 | 91.2 | 56 | 56.1 | 75 | 75.2 |

Second part, led by results:

| GI50 (MDA-MB-231; read-out: GI50) [nM] | GI50 (HeLa; read-out: GI50) [nM] | GI50 (HeLa; read-out: pGI50 (converted)) [nM] | GI50 (MDA-MB-231; read-out: pGI50 (converted)) [nM] | SMILES | GI50 ([1]; read-out: GI50) [nM] | GI50 ([1]; read-out: pGI50 (converted)) [nM] | GI50 ([2]; read-out: GI50) [nM] | GI50 ([2]; read-out: pGI50 (converted)) [nM] |
| --- | --- | --- | --- | --- | --- | --- | --- | --- |
| 1250 | 120 | 120 | 1250 | COc1cccc(-c2nc3ccccc3c(=O)n2C/C=C/c2ccc(-c3cnc4ccccc4n3)cc2)c1 | 2000 | 2000 | 320 | 321 |
| 1240 | 9200 | 9200 | 1240 | Cc1ccc(-c2nc3ccccc3c(=O)n2C/C=C/c2ccc(-c3cnc4ccccc4n3)cc2)cc1 | 11400 | 11400 | 2200 | 2200 |
| 6400 | 5100 | 5110 | 6410 | O=c1c2ccccc2nc(-c2ccccc2)n1C/C=C/c1ccc(-c2cnc3ccccc3n2)cc1 | 2800 | 2810 | 1010 | 1010 |
| 620 | 32 | 32.1 | 621 | Cc1nc2ccccc2c(=O)n1CCCc1ccc(-c2cnc3ccccc3n2)cc1 | 1200 | 1200 | 220 | 220 |
| 1700 | 16100 | 16100 | 1700 | O=c1c2ccccc2nc(-c2ccc(F)cc2)n1C/C=C/c1ccc(-c2cnc3ccccc3n2)cc1 | < 10 |  | 65000 | 65000 |
| 640 | 1200 | 1200 | 641 | COc1ccc(-c2nc3ccccc3c(=O)n2C/C=C/c2ccc(-c3cnc4ccccc4n3)cc2)cc1 | 2100 | 2100 | 2800 | 2810 |
| 570 | 69500 | 69500 | 570 | O=c1c2ccccc2nc(-c2ccc(Cl)cc2)n1C/C=C/c1ccc(-c2cnc3ccccc3n2)cc1 | 6400 | 6410 | < 10 |  |
| 400 | > 100000 |  | 401 | O=c1c2ccccc2nc(-c2ccc(Cl)cc2Cl)n1C/C=C/c1ccc(-c2cnc3ccccc3n2)cc1 | 4400 | 4410 | 2600 | 2600 |
| > 100000 | > 100000 |  |  | CCOc1ccc(-c2nc3ccccc3c(=O)n2C/C=C/c2ccc(-c3cnc4ccccc4n3)cc2)cc1 | 2200 | 2200 | 470 | 471 |
